Where two headings read alike, the source gives them in different places.
Tests used:
human p38δ = target: T1, human p38δ (Homo sapiens, UniProt O15264); experiment: AlphaScreen kinase activity assay, human p38δ; type: biochemical
T1 construct: GST; purchased Invitrogen
T1 sequence (O15264 1-365): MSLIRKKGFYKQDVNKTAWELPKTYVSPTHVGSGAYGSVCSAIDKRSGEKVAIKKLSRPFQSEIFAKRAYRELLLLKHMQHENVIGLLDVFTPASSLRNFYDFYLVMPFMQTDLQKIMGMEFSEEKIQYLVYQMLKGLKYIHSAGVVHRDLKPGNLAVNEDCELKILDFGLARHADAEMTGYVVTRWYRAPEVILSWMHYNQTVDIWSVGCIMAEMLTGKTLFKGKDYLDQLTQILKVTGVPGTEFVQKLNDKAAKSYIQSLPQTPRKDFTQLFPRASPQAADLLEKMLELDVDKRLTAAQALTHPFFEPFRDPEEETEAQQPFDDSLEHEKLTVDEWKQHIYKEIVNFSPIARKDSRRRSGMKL
Experimental: The inhibitory activity of CHF6297 was determined using an AlphaScreen® (PerkinElmer)-based kinase activity assay as previously described ([Armani et al., 2022]). Kinase reactions consisted of 25 mM 4-(2-hydroxyethyl)-1-piperazine ethanesulfonic acid (HEPES), pH 7.5; 10 mM MgCl2; 100 μM Na3VO4; 2 mM DTT; 0.05 mg/mL Tween^TM 20; 100 pM solution of p38α, p38β, p38δ, or p38γ (Invitrogen); 1% DMSO; and 0.3 μg/mL ATF-2 fusion protein (New England Biolabs). Compounds were incubated under these conditions for 2 h, at 25°C, prior to the initiation of kinase activity by the addition of 250 μM ATP. […] Detection was performed by measuring luminescence following the addition of AlphaScreen donor beads (PerkinElmer, 6765300) and Protein A AlphaScreen acceptor beads (PerkinElmer, 6760137), both at a final concentration of 20 μg/mL. IC50 values were determined from concentration–response curves. […]
CHF6297 was tested in biochemical enzymatic assays to determine its potency as an inhibitor of human p38α (MAPK14) and of the other human p38 isoforms, p38β (MAPK11), p38γ ([…]), and p38δ ([…]) ([Armani et al., 2022]). Activity in the primary screening assay was determined using AlphaScreen technology, in which a peptide (ATF2) is phosphorylated by the appropriate GST-tagged p38 protein isoform in the presence of CHF6297 at concentrations from semi-logarithmic dilutions. […]

[1] = test system: IL-1β-induced neutrophil influx and IL-6 in BALF; experiment: IL-1β-induced neutrophilia and IL-6 accumulation in BALF of rats; type: in vivo; settings: for ED50: Rattus norvegicus, Neutrophil
Experimental: IL-1β is a potent proinflammatory agent that markedly induces lung neutrophilia when administered intratracheally in rats, and p38α MAPK is involved in IL-1β signaling in lung cells ([Laporte et al., 2000]). The dose–response curve and anti-inflammatory duration of action studies were carried out by delivering CHF6297 intratracheally through the DP-4M PennCentury insufflator as micronized dry powder (blended with lactose) at the doses of 0.1, 0.35, and 1 mg/kg, 1 h or 24 h before IL-1β challenge. Four hours after IL-1β challenge, BALF was collected for cell counting and IL-6 quantification.
For the experimental studies performed with IL-1β challenge, the first aliquot of BALF was centrifuged separately: the resulting supernatant was frozen at −80°C for IL-6 ELISA analysis.
Frozen cell-free BALFs were analyzed using an ELISA kit purchased from R&D Systems (Rat IL-6 ELISA Kit; Cat. No. SR6000B, Lot. 307537), according to the manufacturer’s instructions.

rat PBMCs = experiment: TNF-α release in LPS-stimulated PBMCs; type: cell-based
Experimental: Peripheral blood mononuclear cells (PBMCs) were isolated from the blood of healthy human volunteers and Wistar rats (250–350 gr; Charles River, Calco, Italy) using a standard density gradient centrifugation technique. The citrated blood was placed onto Histopaque^TM and centrifuged. The PBMCs were then removed from the density gradient interface and washed in phosphate-buffered saline (PBS). The PBMCs were suspended in RPMI 1640 medium (without serum), aliquoted into a 96-well plate, and incubated at 37°C for 3 h in a humidified incubator. After incubation, the medium was replaced (with a medium containing 1% fetal bovine serum), and the plate was incubated at 37°C, for 1 h, in the presence of a test compound or the appropriate vehicle. LPS (10 ng/mL), or an appropriate vehicle control, was then added to the cells, and the plate was returned to the incubator for 18 h. Cell-free supernatants were removed and assayed for TNF-α levels using MSD plates on the SECTOR Imager 6000 (Meso Scale).

[2] = test system: LPS-induced neutrophil influx in BALF; experiment: LPS-induced BALF neutrophilia in rats
Experimental: For intratracheal (i.t.) administration of LPS or IL-1β, animals were anesthetized with sevoflurane (4% in oxygen), and a laryngoscope was moved forward into the mouth to visualize the trachea and guide the insertion of a fine-tipped PE 100 tube (air-jet delivery system) directly into the trachea and located 1–2 mm above the carina bifurcation. LPS or IL-1β at a concentration of 5 μg/kg and 0.3 μg/kg, respectively, was prepared as a saline solution in a 0.5 mL/kg volume and was blown into the airways during the spontaneous inspiration phase in an air volume of 2 mL.
Each dose group was allocated to a separate system, and each system was housed in an individual ventilated hood.
Powder generation: Compound and vehicle blends were compressed into canisters by using a hydraulic press at 50 bar to prepare a stable “tablet” and ensure a uniform pack density. The Wright Dust Feeder (WDF) comprised an electric motor, gears, a scraper blade, air entry, and a final jet and baffle array. The scraper blade scraped off a fine layer of powder, driven by the motor, and the output speed was determined by the configuration of the gears. The scraped powder was then blown out of the dust feed at its base through a jet which focused the powder stream at a baffle, thus reducing aggregation and producing a fine particulate. The WDF was attached to an aerosol conditioning pre-chamber for the delivery of the powder to the inhalation tower. The generation of the powder was monitored throughout the exposure periods either visually or electronically with a dust monitor.
Inhalation tower: The nose-only inhalation tower was a modular apparatus of anodized aluminum comprising a base unit, two animal sections, and a top section, connected to an earth lead to prevent the formation of any static build-up. During the exposures, the rats were held in restraining tubes, with their snouts protruding into the exposure chamber (see Supplementary Material, Figure 1). The rate of airflow through the WDF was 19 L/min, and that of the exhaust airflow was 20 L/min (vehicle, 0.1 and 1 mg/kg doses) or 40 L/min (0.03 mg/kg doses). The air supply and extract were monitored using in-line flowmeters and recorded manually.
The inhaled dose was derived using the following equation ([Alexander et al., 2008]): delivered dose (μg/kg) = (Conc. × RMV × D)/BW, where Conc. = concentration of CHF-6297 in the air inhaled (µg/L); RMV = volume of air inhaled in 1 min (L/min) 0.608 × BW (kg) 0.852; D = duration of exposure to the aerosol (min); and BW = body weight (kg).
Animals were dosed either 1 h (dose–response curve) or 24 h (duration of action) before LPS challenge. Four hours after endotoxin challenge or saline injection, bronchoalveolar lavage fluid (BALF) was collected for cell counting.
Animals were anesthetized with sevoflurane (4% in oxygen) and euthanized by bleeding from the abdominal aorta. BALF was obtained by gently washing the lungs with three aliquots (4 mL each) of 100 mL of solution A [Hank’s balanced salt solution (HBSS) × 10; 100 mL of 100 mM EDTA; 10 mL of 1 mM HEPES; and 790 mL of distilled water]. […] The resulting BALF was centrifuged at 800 × g for 10 min at 4°C. […] The cell count per animal was calculated from the number of cells for 1 µL of BALF multiplied by the volume used for the resuspension of the cell pellet.

[3] = test system: i.v. LPS-induced TNF-α in blood; experiment: Intravenous LPS-induced TNF-α release in rat blood; type: in vivo, rats; settings: 0.3 mg/kg lactose-blended dry powder via inhalation, 2 h before i.v. LPS (0.3 mg/kg)
[4] = 0.35 mg/kg i.t., 24 h before IL-1β
[5] = 1 mg/kg i.t., 24 h before IL-1β

For `C[C@H]1CCCCN1c1nnc2ccc(O[C@@H]3CC[C@H](NC(=O)Nc4cc(C(C)(C)C)nn4-c4cnn(CCN(C)C)c4)c4ccccc43)cn12` [CHF6297], the “IC50 fold-difference vs. human p38α” value (human p38δ) was >7,000, the IC50 (human p38δ; n = 3, read-out: IC50 (mean ± s.d.)) was > 1000 nM and the “IL-6 concentration in BAL fluid” value ([1]; 0.1 mg/kg i.t., 1 h before IL-1β) was 791 ± 131 pg/mL. For the same compound, the “IL-6 concentration in BAL fluid” value ([1]; 0.35 mg/kg i.t., 1 h before IL-1β) was 302 ± 58.34 pg/mL, the “IL-6 concentration in BAL fluid” value [1, 4] was 1,101 ± 253 pg/mL and the “neutrophils in BALF” value [1, 4] was 5.5 × 10^6 ± 814 neutrophils. The “neutrophils in BALF” value ([1]; 1 mg/kg i.t. dry powder, 1 h before IL-1β) was 2.3 × 10^6 ± 234 neutrophils, the “IL-6 concentration in BAL fluid” value ([1]; 1 mg/kg i.t., 1 h before IL-1β) was 404 ± 108 pg/mL and the “IL-6 concentration in BAL fluid” value [1, 5] was 337 ± 84 pg/mL. The “neutrophils in BALF” value [1, 5] was 2.98 × 10^6 ± 62 neutrophils, the ED50 ([1]; i.t. dry powder, 1 h before IL-1β, read-out: ED50, IL-1β-induced neutrophil influx) was 0.22 mg/kg and the ED50 ([1]; i.t., IL-1β challenge, read-out: ED50, increase in IL-6 levels in BALF) was 0.82 mg/kg. For the same compound, the IC50 (rat PBMCs; PBMC, LPS 10 ng/mL, 18 h) was 1.4 nM, the “fold less potent than AZD7624” value (rat PBMCs; TNF-α release) was 7 fold and the “neutrophils in BALF” value ([2]; 0.1 mg/kg nose-only dry powder, 1 h before LPS, BALF 4 h after challenge) was 1.18 × 10^6 ± 0.27 × 10^6 neutrophils. For the same compound, the “neutrophils in BALF” value ([2]; 0.1 mg/kg nose-only dry powder, 24 h before LPS) was 1.9 × 10^6 ± 0.3 × 10^6 neutrophils, the “neutrophils in BALF” value ([2]; 1 mg/kg nose-only dry powder, 1 h before LPS, BALF 4 h after challenge) was 0.7 × 10^6 ± 0.12 × 10^6 neutrophils and the “neutrophils in BALF” value ([2]; 1 mg/kg nose-only dry powder, 24 h before LPS) was 1.45 × 10^6 ± 0.19 × 10^6 neutrophils. The ED50 ([2]; Rattus norvegicus, Neutrophil, read-out: ED50, inhibition of pulmonary neutrophilia) was 0.064 mg/kg and the “effect on TNF-α levels in blood” value [3] was “no significant inhibition of TNF-α levels”.

— paper PMC10973839, “CHF6297: a novel potent and selective p38 MAPK inhibitor with robust anti-inflammatory activity and suitable for inhaled pulmonary administration as dry powder” (Frontiers in Pharmacology, 2024)
